Values of other authors, collected in patent publication US7960134B1, “Kinase inhibition models and their uses” (ArQule, Inc., priority 2007, dated 2011).

Tests used:
c-Met = c-Met (Homo sapiens, UniProt P08581); settings: observation cited from WO 2006/086484 A1
c-Abl = c-Abl (Homo sapiens, UniProt P00519); settings: observation cited from WO 2006/086484 A1
Sequence of c-Abl (P00519 whole entry): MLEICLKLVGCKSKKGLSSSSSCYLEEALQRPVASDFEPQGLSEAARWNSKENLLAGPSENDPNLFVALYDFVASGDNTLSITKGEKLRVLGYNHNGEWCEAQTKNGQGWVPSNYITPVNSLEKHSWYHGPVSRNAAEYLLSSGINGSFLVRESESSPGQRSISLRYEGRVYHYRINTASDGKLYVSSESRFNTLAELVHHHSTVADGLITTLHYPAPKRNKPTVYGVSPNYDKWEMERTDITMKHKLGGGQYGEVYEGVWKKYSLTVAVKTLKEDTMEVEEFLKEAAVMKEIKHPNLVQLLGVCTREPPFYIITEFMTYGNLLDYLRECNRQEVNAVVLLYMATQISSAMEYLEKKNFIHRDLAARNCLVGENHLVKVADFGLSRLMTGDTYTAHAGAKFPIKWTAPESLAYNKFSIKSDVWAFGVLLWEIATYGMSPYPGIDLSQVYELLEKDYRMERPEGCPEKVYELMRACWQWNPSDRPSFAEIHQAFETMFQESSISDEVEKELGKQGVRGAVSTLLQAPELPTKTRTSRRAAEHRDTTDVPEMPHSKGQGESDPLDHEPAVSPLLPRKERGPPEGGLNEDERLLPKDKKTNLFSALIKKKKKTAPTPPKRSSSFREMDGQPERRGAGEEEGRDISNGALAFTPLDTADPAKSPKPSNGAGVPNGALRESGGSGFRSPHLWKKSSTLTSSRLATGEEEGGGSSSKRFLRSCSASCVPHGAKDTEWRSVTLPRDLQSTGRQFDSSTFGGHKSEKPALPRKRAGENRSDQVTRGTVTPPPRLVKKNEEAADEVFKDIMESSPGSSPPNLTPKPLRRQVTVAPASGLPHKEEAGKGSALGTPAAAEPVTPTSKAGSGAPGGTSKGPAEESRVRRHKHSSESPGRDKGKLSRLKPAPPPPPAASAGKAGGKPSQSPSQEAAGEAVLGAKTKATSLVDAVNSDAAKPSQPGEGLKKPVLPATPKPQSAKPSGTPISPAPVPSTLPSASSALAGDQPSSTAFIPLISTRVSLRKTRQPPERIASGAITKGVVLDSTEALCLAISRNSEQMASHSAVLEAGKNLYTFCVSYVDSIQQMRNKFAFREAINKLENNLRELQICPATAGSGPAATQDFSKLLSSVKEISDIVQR

Sequence of c-Met (P08581 25-1390): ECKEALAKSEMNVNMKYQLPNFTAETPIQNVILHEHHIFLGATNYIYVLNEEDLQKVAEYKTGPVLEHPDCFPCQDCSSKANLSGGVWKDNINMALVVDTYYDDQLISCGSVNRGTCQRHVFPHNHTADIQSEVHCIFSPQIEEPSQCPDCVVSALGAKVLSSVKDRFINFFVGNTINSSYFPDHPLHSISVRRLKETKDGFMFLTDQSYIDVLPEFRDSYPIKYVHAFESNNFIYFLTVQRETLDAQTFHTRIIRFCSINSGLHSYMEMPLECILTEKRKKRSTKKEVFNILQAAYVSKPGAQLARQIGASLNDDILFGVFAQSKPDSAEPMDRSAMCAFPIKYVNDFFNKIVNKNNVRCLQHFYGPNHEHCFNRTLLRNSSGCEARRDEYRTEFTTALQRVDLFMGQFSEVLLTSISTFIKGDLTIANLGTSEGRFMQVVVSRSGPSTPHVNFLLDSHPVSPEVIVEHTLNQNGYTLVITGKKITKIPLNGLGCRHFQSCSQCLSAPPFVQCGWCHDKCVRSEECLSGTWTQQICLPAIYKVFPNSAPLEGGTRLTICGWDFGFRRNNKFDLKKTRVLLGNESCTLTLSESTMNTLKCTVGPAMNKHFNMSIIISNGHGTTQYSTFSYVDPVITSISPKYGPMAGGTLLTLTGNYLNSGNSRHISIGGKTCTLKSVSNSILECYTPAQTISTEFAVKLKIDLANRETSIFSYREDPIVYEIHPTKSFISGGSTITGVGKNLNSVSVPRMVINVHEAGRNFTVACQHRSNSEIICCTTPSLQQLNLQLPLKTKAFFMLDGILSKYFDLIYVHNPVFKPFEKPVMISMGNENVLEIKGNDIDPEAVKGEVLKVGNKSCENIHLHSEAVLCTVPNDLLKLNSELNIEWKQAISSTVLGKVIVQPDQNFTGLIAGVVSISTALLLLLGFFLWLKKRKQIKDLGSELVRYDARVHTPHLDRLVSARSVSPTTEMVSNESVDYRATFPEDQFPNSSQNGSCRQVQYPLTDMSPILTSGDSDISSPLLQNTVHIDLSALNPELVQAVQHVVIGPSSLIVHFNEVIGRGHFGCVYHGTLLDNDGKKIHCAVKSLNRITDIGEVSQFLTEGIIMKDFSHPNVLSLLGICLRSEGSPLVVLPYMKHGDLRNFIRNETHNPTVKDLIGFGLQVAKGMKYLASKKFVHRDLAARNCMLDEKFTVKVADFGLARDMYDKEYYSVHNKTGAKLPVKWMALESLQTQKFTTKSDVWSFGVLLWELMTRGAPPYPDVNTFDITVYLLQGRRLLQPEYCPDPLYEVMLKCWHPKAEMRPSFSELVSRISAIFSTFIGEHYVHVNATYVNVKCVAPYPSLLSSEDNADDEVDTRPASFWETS

## O=C1NC(=O)[C@@H](c2cn3c4c(cccc24)CCC3)[C@@H]1c1c[nH]c2ccccc12 (single isomer, unassigned) [the selective c-Met inhibitor, (−)-trans-3-(5,6-dihydro-4H-pyrrolo[3,2,1-ij]quinolin-1-yl)-4(1H-indol-3-yl)pyrrolidine-2,5-dione]
c-Met
  inhibition of the activity of c-Met: inhibits the activity of c-Met effectively
c-Abl
  inhibition of the activity of c-Abl: does not inhibit the activity of c-Abl effectively
